The target of the assay is human TYK2 (JH2domain-pseudokinase) (Homo sapiens (Human), UniProt P29597). The experiment in a line: TYK2 JH2 Domain Binding Assay (KINOMEscan competition binding). The settings on record: KINOMEscan; 11-point 3-fold dilution, top concentration 30,000 nM; Kd measurements in duplicate; read-out: TYK JH2 (Kd). The method in brief: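 Competition binding of HEK293-expressed, DNA-tagged TYK2 JH2 (G556–D888)-NFkB fusion in crude extract against immobilized ligand, 1 h at room temperature, 0.9% DMSO. Bead-bound kinase quantified by qPCR; Kd from 11-point 3-fold series (top 30,000 nM), duplicate, Hill fit with slope −1.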
human TYK2 (JH2domain-pseudokinase), sequence (P29597 556-888): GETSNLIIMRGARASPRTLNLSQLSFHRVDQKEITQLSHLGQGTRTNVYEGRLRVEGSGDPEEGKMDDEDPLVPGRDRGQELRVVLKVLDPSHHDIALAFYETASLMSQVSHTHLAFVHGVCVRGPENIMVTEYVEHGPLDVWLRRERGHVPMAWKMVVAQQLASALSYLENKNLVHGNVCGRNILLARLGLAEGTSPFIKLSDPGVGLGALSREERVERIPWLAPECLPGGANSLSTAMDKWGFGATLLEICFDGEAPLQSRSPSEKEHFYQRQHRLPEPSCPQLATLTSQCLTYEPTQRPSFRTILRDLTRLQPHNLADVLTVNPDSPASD
In general, Kd refers to the equilibrium constant for the complex coming apart. Regarding `COc1c(Nc2nc(N3CCCN(C(C)=O)CC3)ncc2C(N)=O)cccc1-c1ncc(F)cn1` [Compound 81, 2-(4-acetyl-1,4-diazepan-1-yl)-4-((3-(5-fluoropyrimidin-2-yl)-2-methoxyphenyl)amino)pyrimidine-5-carboxamide], the equilibrium dissociation constant (Kd) was determined as 370 nM.
Next, `NC(=O)c1cnc(N2CCC(C(=O)O)CC2)nc1Nc1ccc(C2CC2)nc1` [Compound 35, 1-(5-carbamoyl-4-((6-cyclopropylpyridin-3-yl)amino)pyrimidin-2-yl)piperidine-4-carboxylic acid]: 710 nM.
Consider `CCOC(=O)C1CCN(c2ncc(C(=O)NC)c(Nc3ccc(C4CC4)nc3)n2)CC1` [Compound 20, Ethyl 1-(4-((6-cyclopropylpyridin-3-yl)amino)-5-(methylcarbamoyl)pyrimidin-2-yl)piperidine-4-carboxylate], for which the Kd was 2500 nM.
Next, `CC(=O)N1CCCN(c2ncc(C(N)=O)c(Nc3ccc(C4CC4)nc3)n2)CC1` [Compound 64, 2-(4-acetyl-1,4-diazepan-1-yl)-4-((6-cyclopropylpyridin-3-yl)amino)pyrimidine-5-carboxamide]: 1400 nM; `CNC(=O)c1cnc(N2CCCN(C(C)=O)CC2)nc1Nc1cccc(-c2ncc(F)cn2)c1OC` [Compound 77, 2-(4-acetyl-1,4-diazepan-1-yl)-4-((3-(5-fluoropyrimidin-2-yl)-2-methoxyphenyl)amino)-N-methylpyrimidine-5-carboxamide]: 170 nM.

The values above are taken from patent US20250257051A1, “SUBSTITUTED PYRIMIDINE COMPOUNDS AS TYK2 INHIBITORS” (1910 Genetics Inc., priority 2022, published 2025).
